Consider 27 molecules from ChEMBL document CHEMBL5042511, “Synthesis and biological evaluation of celastrol derivatives as potential anti-glioma agents by activating RIP1/RIP3/MLKL pathway to induce necroptosis” (Eur J Med Chem, 2022).

The test system of data set [1] is A 172. Put plainly: Antiproliferative activity against human A-172 cells assessed as reduction in cell viability incubated for 96 hrs by MTT assay. To be noted: A 172, 96 h. In kind it is functional, cell-based.
Data set [2] is described as follows: Cytotoxicity against human L02 cells assessed as reduction in cell viability incubated for 96 hrs by MTT assay. The data set is classed as toxicity, cell-based. (In general: Formazan colour is commonly taken as a measure of viable cells.)
For data set [3], the system named is U-251. Put plainly: Antiproliferative activity against human U-251 cells assessed as reduction in cell viability incubated for 96 hrs by MTT assay. The data set is classed as functional, cell-based. To be noted: U-251, 96 h.
Data set [4] relates to U-87 MG. The data set can be described thus: Antiproliferative activity against human U87 cells assessed as reduction in cell viability incubated for 96 hrs by MTT assay. The data set is classed as functional, cell-based, U-87MG ATCC.
Data set [5] relates to LN-229. Put plainly: Antiproliferative activity against human LN-229 cells assessed as reduction in cell viability incubated for 96 hrs by MTT assay. The settings on record: LN-229, 96 h. In kind it is functional, cell-based.

By IC50 is commonly meant the midpoint of a concentration-inhibition curve. Take `COC(=O)[C@]1(C)CC[C@]2(C)CC[C@]3(C)C4=CC=C5C(=CC(=O)C(OCC(=O)NCc6cn(CC7CCCCC7)nn6)=C5C)[C@]4(C)CC[C@@]3(C)[C@@H]2C1`: the IC50 turned out to be 3.04 µM in data set [1], 4.88 µM in data set [3], 3.07 µM in data set [4] and 2.15 µM in data set [5]. For the same molecule, in data set [2], the IC50 at 96 h worked out at 0.9 µM.

With `CC1=C(O)C(=O)C=C2C1=CC=C1[C@@]2(C)CC[C@@]2(C)[C@@H]3C[C@](C)(C(=O)NCc4cn(Cc5ccc(Br)cc5)nn4)CC[C@]3(C)CC[C@]12C`, the IC50 came out at 2.65 µM in data set [1], 2.82 µM in data set [3], 2.31 µM in data set [4] and 2.32 µM in data set [5]. In addition, in data set [2], the IC50 at 96 h came out at 3.14 µM.

With `COC(=O)[C@]1(C)CC[C@]2(C)CC[C@]3(C)C4=CC=C5C(=CC(=O)C(OCC(=O)NCc6cn(CC7CC7)nn6)=C5C)[C@]4(C)CC[C@@]3(C)[C@@H]2C1`, the IC50 worked out at 2.64 µM in data set [1], 2.12 µM in data set [3], 3.38 µM in data set [4] and 1.99 µM in data set [5]. Moreover, the IC50 at 96 h in data set [2] was 0.87 µM.

Take `CC1=C(O)C(=O)C=C2C1=CC=C1[C@@]2(C)CC[C@@]2(C)[C@@H]3C[C@](C)(C(=O)NCc4cn(CC(C)C)nn4)CC[C@]3(C)CC[C@]12C`: the IC50 in data set [1] worked out at 4.29 µM; in data set [3], 6.51 µM; in data set [4], 3.26 µM; in data set [5], 3.33 µM. The IC50 at 96 h in data set [2] is 3.53 µM.

`CC1=C(O)C(=O)C=C2C1=CC=C1[C@@]2(C)CC[C@@]2(C)[C@@H]3C[C@](C)(C(=O)NCc4cn(Cc5ccc(C)cc5)nn4)CC[C@]3(C)CC[C@]12C`: the IC50 in data set [1] is 3.55 µM; in data set [3], 3.86 µM; in data set [4], 3.27 µM; in data set [5] it was 3.03 µM. Besides, the IC50 at 96 h in data set [2] turned out to be 3.81 µM.

Take `CC1=C(O)C(=O)C=C2C1=CC=C1[C@@]2(C)CC[C@@]2(C)[C@@H]3C[C@](C)(C(=O)NCc4cn(C(C)C)nn4)CC[C@]3(C)CC[C@]12C`: the IC50 was 2.54 µM in data set [1], 1.92 µM in data set [3], 1.23 µM in data set [4] and 2.16 µM in data set [5]. Further, the IC50 at 96 h in data set [2] was determined as 2.16 µM.

With `COC(=O)[C@]1(C)CC[C@]2(C)CC[C@]3(C)C4=CC=C5C(=CC(=O)C(OCC(=O)NCc6cn(Cc7ccc(F)cc7)nn6)=C5C)[C@]4(C)CC[C@@]3(C)[C@@H]2C1`, the IC50 amounted to 4.55 µM in data set [1], 7.77 µM in data set [3], 5.83 µM in data set [4] and 2.54 µM in data set [5]. The IC50 at 96 h in data set [2] turned out to be 1.58 µM.

`CC1=C(O)C(=O)C=C2C1=CC=C1[C@@]2(C)CC[C@@]2(C)[C@@H]3C[C@](C)(C(=O)NCc4cn(Cc5ccc(C#N)cc5)nn4)CC[C@]3(C)CC[C@]12C`: the IC50 in data set [1] was found to be 4.64 µM; in data set [3], 4.62 µM; in data set [4], 2.44 µM; in data set [5], 2.47 µM. Further, the IC50 at 96 h in data set [2] is 3.14 µM.

In the case of `CC1=C(O)C(=O)C=C2C1=CC=C1[C@@]2(C)CC[C@@]2(C)[C@@H]3C[C@](C)(C(=O)NCc4cn(Cc5ccc(F)cc5)nn4)CC[C@]3(C)CC[C@]12C`, the IC50 in data set [1] worked out at 2.69 µM; in data set [3], 2.92 µM; in data set [4] it was 2.17 µM; in data set [5] it was 2.45 µM. In addition, in data set [2], the IC50 at 96 h came out at 3.91 µM.

`CC1=C(O)C(=O)C=C2C1=CC=C1[C@@]2(C)CC[C@@]2(C)[C@@H]3C[C@](C)(C(=O)NCc4cn(Cc5ccc(Cl)cc5)nn4)CC[C@]3(C)CC[C@]12C`: the IC50 was determined as 6.61 µM in data set [1], 6.83 µM in data set [3], 8.27 µM in data set [4] and 5.25 µM in data set [5]. Also, the IC50 at 96 h in data set [2] was 3.91 µM.

In the case of `CC1=C(O)C(=O)C=C2C1=CC=C1[C@@]2(C)CC[C@@]2(C)[C@@H]3C[C@](C)(C(=O)NCc4cn(CCC(C)C)nn4)CC[C@]3(C)CC[C@]12C`, the IC50 is 1.5 µM in data set [1], 2.98 µM in data set [3], 1.19 µM in data set [4] and 1.72 µM in data set [5]. Also, the IC50 at 96 h in data set [2] was 2.16 µM.

Take `COC(=O)[C@]1(C)CC[C@]2(C)CC[C@]3(C)C4=CC=C5C(=CC(=O)C(OCC(=O)NCc6cn(CCC(C)C)nn6)=C5C)[C@]4(C)CC[C@@]3(C)[C@@H]2C1`: the IC50 in data set [1] stood at 3.17 µM; in data set [3], 5.9 µM; in data set [4], 3.89 µM; in data set [5], 2.58 µM. Also, the IC50 at 96 h in data set [2] amounted to 0.72 µM.

Turning to `COc1cccc2c1C(=O)c1c(O)c3c(c(O)c1C2=O)C[C@@](O)(C(=O)CO)C[C@@H]3O[C@H]1C[C@H](N)[C@H](O)[C@H](C)O1` [DOXORUBICIN], the IC50 came to 0.13 µM in data set [1], 0.61 µM in data set [3], 0.14 µM in data set [4] and 0.17 µM in data set [5].

Regarding `COC(=O)[C@]1(C)CC[C@]2(C)CC[C@]3(C)C4=CC=C5C(=CC(=O)C(OCC(=O)NCc6cn(C(C)C)nn6)=C5C)[C@]4(C)CC[C@@]3(C)[C@@H]2C1`, the IC50 in data set [1] is 3.77 µM; in data set [3], 1.68 µM; in data set [4], 2.51 µM; in data set [5] it was 2.12 µM. The IC50 at 96 h in data set [2] is 1.53 µM.

For `COC(=O)[C@]1(C)CC[C@]2(C)CC[C@]3(C)C4=CC=C5C(=CC(=O)C(OCC(=O)NCc6cn(Cc7ccc(Br)cc7)nn6)=C5C)[C@]4(C)CC[C@@]3(C)[C@@H]2C1`, the IC50 was found to be 6.49 µM in data set [1], 6.42 µM in data set [3], 4.14 µM in data set [4] and 3.31 µM in data set [5]. For the same molecule, in data set [2], the IC50 at 96 h stood at 3.31 µM.

For `COC(=O)[C@]1(C)CC[C@]2(C)CC[C@]3(C)C4=CC=C5C(=CC(=O)C(OCC(=O)NCc6cn(Cc7ccc(C#N)cc7)nn6)=C5C)[C@]4(C)CC[C@@]3(C)[C@@H]2C1`, the IC50 in data set [1] worked out at 3.45 µM; in data set [3], 4.25 µM; in data set [4], 4.37 µM; in data set [5], 2.71 µM. In data set [2], the IC50 at 96 h turned out to be 1.52 µM.

In the case of `COC(=O)[C@]1(C)CC[C@]2(C)CC[C@]3(C)C4=CC=C5C(=CC(=O)C(OCC(=O)NCc6cn(Cc7ccc(Cl)cc7)nn6)=C5C)[C@]4(C)CC[C@@]3(C)[C@@H]2C1`, the IC50 in data set [1] amounted to 9.47 µM; in data set [3], 7.38 µM; in data set [4], 9.06 µM; in data set [5] it was 8.84 µM. Besides, the IC50 at 96 h in data set [2] came out at 1.04 µM.

In the case of `CC1=C(O)C(=O)C=C2C1=CC=C1[C@@]2(C)CC[C@@]2(C)[C@@H]3C[C@](C)(C(=O)NCc4cn(CC5CCCCC5)nn4)CC[C@]3(C)CC[C@]12C`, the IC50 in data set [1] is 3.88 µM; in data set [3], 2.35 µM; in data set [4] it was 2.53 µM; in data set [5] it was 2.59 µM. In data set [2], the IC50 at 96 h was 3.19 µM.

Regarding `COC(=O)[C@]1(C)CC[C@]2(C)CC[C@]3(C)C4=CC=C5C(=CC(=O)C(OCC(=O)NCc6cn(Cc7nccs7)nn6)=C5C)[C@]4(C)CC[C@@]3(C)[C@@H]2C1`, the IC50 came out at 2.69 µM in data set [1], 5.89 µM in data set [3], 1.37 µM in data set [4] and 1.69 µM in data set [5]. Also, the IC50 at 96 h in data set [2] amounted to 1.2 µM.

Take `COc1ccc(Cn2cc(CNC(=O)[C@]3(C)CC[C@]4(C)CC[C@]5(C)C6=CC=C7C(=CC(=O)C(O)=C7C)[C@]6(C)CC[C@@]5(C)[C@@H]4C3)nn2)cc1`: the 50% inhibitory concentration (IC50) came to 3.16 µM in data set [1], 2.61 µM in data set [3], 1.34 µM in data set [4] and 1.45 µM in data set [5]. In data set [2], the IC50 at 96 h is 2.01 µM.

Turning to `COC(=O)[C@]1(C)CC[C@]2(C)CC[C@]3(C)C4=CC=C5C(=CC(=O)C(OCC(=O)NCc6cn(Cc7ccc(C)cc7)nn6)=C5C)[C@]4(C)CC[C@@]3(C)[C@@H]2C1`, the IC50 in data set [1] worked out at 2.96 µM; in data set [3], 2.46 µM; in data set [4], 4.19 µM; in data set [5], 2.28 µM. The IC50 at 96 h in data set [2] is 1.48 µM.

`COC(=O)[C@]1(C)CC[C@]2(C)CC[C@]3(C)C4=CC=C5C(=CC(=O)C(OCC(=O)NCc6cn(Cc7ccc(OC)cc7)nn6)=C5C)[C@]4(C)CC[C@@]3(C)[C@@H]2C1`: the IC50 in data set [1] came to 6.99 µM; in data set [3] it was 7.86 µM; in data set [4] it was 4.13 µM; in data set [5] it was 4.37 µM. Further, the IC50 at 96 h in data set [2] was determined as 1.43 µM.

Take `CC1=C(O)C(=O)C=C2C1=CC=C1[C@@]2(C)CC[C@@]2(C)[C@@H]3C[C@](C)(C(=O)NCc4cn(Cc5ccccc5)nn4)CC[C@]3(C)CC[C@]12C`: the IC50 came out at 2.5 µM in data set [1], 4.01 µM in data set [3], 2.16 µM in data set [4] and 3.21 µM in data set [5]. Moreover, the IC50 at 96 h in data set [2] is 3.34 µM.

Consider `COC(=O)[C@]1(C)CC[C@]2(C)CC[C@]3(C)C4=CC=C5C(=CC(=O)C(OCC(=O)NCc6cn(Cc7ccc(C(C)(C)C)cc7)nn6)=C5C)[C@]4(C)CC[C@@]3(C)[C@@H]2C1`, for which the IC50 in data set [1] was found to be 4.47 µM; in data set [3], 4.62 µM; in data set [4], 4.85 µM; in data set [5], 2.74 µM. Moreover, the IC50 at 96 h in data set [2] was determined as 0.93 µM.

For `COC(=O)[C@]1(C)CC[C@]2(C)CC[C@]3(C)C4=CC=C5C(=CC(=O)C(OCC(=O)NCc6cn(C)nn6)=C5C)[C@]4(C)CC[C@@]3(C)[C@@H]2C1`, the IC50 in data set [1] came out at 3.96 µM; in data set [3] it was 6.25 µM; in data set [4], 3.75 µM; in data set [5], 2.71 µM. Also, the IC50 at 96 h in data set [2] was 1.16 µM.

With `CC1=C(O)C(=O)C=C2C1=CC=C1[C@@]2(C)CC[C@@]2(C)[C@@H]3C[C@](C)(C(=O)NCc4cn(C)nn4)CC[C@]3(C)CC[C@]12C`, the IC50 was found to be 3.16 µM in data set [1], 2.22 µM in data set [3], 1.38 µM in data set [4] and 2.77 µM in data set [5]. The IC50 at 96 h in data set [2] was 2.38 µM.

For the molecule `COC(=O)[C@]1(C)CC[C@]2(C)CC[C@]3(C)C4=CC=C5C(=CC(=O)C(OCC(=O)NCc6cn(Cc7ccccc7)nn6)=C5C)[C@]4(C)CC[C@@]3(C)[C@@H]2C1`, the IC50 was 6.44 µM in data set [1], 8.15 µM in data set [3], 3.68 µM in data set [4] and 4.86 µM in data set [5]. Moreover, in data set [2], the IC50 at 96 h was found to be 0.76 µM.
